Source: article PMC6826779, “Bis-allylic Deuterated DHA Alleviates Oxidative Stress in Retinal Epithelial Cells” (Antioxidants, 2019)

Experiments:
[1] = target: T1, 15-sLOX (Glycine max, UniProt P08170); experiment: Kinetics parameters of 15s-LOX (UV 270 nm, Michaelis-Menten); assay type: biochemical, Glycine max (soybean)
T1 sequence (P08170 1-839): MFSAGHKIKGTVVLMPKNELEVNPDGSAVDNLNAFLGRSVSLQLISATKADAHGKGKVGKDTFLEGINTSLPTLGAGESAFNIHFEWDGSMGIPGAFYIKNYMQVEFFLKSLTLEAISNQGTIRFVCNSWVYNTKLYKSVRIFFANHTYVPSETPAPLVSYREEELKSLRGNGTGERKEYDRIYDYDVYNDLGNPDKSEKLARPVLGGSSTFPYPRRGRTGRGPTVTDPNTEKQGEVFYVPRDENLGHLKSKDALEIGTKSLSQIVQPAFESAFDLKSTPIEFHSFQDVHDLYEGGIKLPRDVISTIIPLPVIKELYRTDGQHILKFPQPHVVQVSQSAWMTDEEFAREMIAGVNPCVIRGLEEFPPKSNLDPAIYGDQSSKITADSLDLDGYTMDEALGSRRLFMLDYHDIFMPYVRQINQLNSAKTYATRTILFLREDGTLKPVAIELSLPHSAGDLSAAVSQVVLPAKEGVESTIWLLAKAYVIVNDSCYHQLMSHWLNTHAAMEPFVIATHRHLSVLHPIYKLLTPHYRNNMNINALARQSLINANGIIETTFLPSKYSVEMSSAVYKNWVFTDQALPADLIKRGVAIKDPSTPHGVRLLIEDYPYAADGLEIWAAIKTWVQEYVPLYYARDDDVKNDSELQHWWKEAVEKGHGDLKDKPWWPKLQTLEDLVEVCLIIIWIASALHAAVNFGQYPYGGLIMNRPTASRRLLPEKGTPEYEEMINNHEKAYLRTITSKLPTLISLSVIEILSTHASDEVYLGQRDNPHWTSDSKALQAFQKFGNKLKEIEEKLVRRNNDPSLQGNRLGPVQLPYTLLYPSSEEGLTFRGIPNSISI
Experimental: The activity of 15-sLOX was monitored on a Beckman Coulter DU730 Life Sciences UV-visible spectrometer at a wavelength of 270 nm monitoring the conjugated triene structure in the dihydroxylation products. For the measurements a reaction mixture of DHA or deuterated DHA (0.02 mM; 0.04 mM; 0.1 mM and 0.2 mM) was prepared in 750 µL sodium borate buffer (50 mM, pH 9) by ultrasonification for 10 s. The reaction was subsequently initiated by the addition of 10 µL 15-sLOX (4 mg/mL) to make a total volume of 760 µL in a Hellma CEL2056 quartz cuvette with 1 cm path length (20 °C). The initial reaction rates (V(0)), derived from the recorded UV-absorbance using the law of Lambert-Beer (molar extinction coefficient = 40,000), were plotted against the respective DHA concentrations and fitted to Michaelis-Menten kinetics in GraphPad Prism 7.0. All V(0) values were determined in triplicate and the average of three independent experiments was plotted against the substrate concentrations to yield Michaelis-Menten kinetics.

[2] = target: T1, 15-sLOX; experiment: LC-MS/MS of 15s-LOX oxidized samples (product profile); assay type: biochemical, Glycine max (soybean); details: 0.1 mM substrate, 30 min reaction, room temperature
Experimental: In order to gain insights on the nature of the produced metabolites, LC-MS/MS analysis of the reaction products were carried out. To this end, the respective DHA variants (0.1 mM) were incubated in a 2 mL eppendorf tube with 10 µL 15-sLOX (4 mg/mL) in sodium borate buffer (50 mM, pH 9) for 30 min at room temperature and the reaction quenched by the addition of cold MeOH (760 µL). The hydroperoxides were reduced with the addition of aq. SnCl2 (50 µL, 5 mg/mL) and subsequently the mixture was centrifuged (16,100 ×g for 5 min). Water (2 mL) was added to the supernatant, followed by the dropwise addition of glacial acetic acid (40 µL). The products were purified by SPE using SepPak 200 mg C18 cartridges (3CC), according to published protocols. The methyl formate eluates were evaporated to dryness, dissolved in MeOH (0.5 mL) and stored at −80 °C until analysis. The resulting solution was diluted 1000 times with MeOH for LC-MS/MS measurements. To 120 µL water, 72 µL of MeOH, 4 µL of the diluted solution and 4 µL of an internal standard (15-HETE-d8, Leukotriene LTB4-d4 and DHA-d5) was added. The samples were loaded in a SIL-30AC autosampler and the analytes separated on a Kinetex 1.7 µm C18 100Å, 50 × 2.1 mm LC column as described. The detection of DHA metabolites was performed in selected ion monitoring mode using several traces in order to take the eventual loss of a deuterium atom into account. The following traces were used: m/z 327.2, 343.2, 359.2 and 375.2 for DHA and its metabolites, m/z 327.2, 328.2, 329.2, 344.2, 345.2, 360.2, 361.2, 376.2, 377.2 for D2-DHA, m/z 331.2, 345.3, 346.2, 361.2, 362.3, 363.2, 377.2, 378.2 and 379.2 for D4-DHA and m/z 337.2, 352.2, 353.2, 367.2, 368.2, 369.2, 383.2, 384.2 and 385.2 for D10-DHA. Tandem mass spectra were recorded as product ion scans. Quantification of the metabolites was done by calculating the area ratio between the analyte and the internal standard (DHA-d5 for non-hydroxylated, 15-HETE-d8 for mono-hydroxylated and LTB4-d4 for di-hydroxylated derivatives) using Multiquant version 3.0.2.

[3] = tested on: ARPE-19 cells; experiment: Protection of lipophenols against all-trans-retinal (MTT cell viability); assay type: cell-based; details: ARPE-19, pretreatment 80 µM 1 h, trans-retinal 25 µM 4 h, MTT after 20 h
Experimental: (§1) Cell viability was determined by the MTT colorimetric assay. Cells were incubated for 2 h with MTT reagent (0.5 mg/mL). The absorbance at 570 nm and 655 nm of individual wells was measured using a microplate reader (BioRad 550). The percentage of viable cells was calculated as [(OD570 sample – OD655 sample)/(OD570 control – OD655 control)] × 100%.
ARPE-19 cells were plated into 96-well plates (3 × 10^4 cells/well) and cultured for 24 h to reach confluence before lipophenol treatment. Cells were treated with serum free medium containing lipophenols at different concentrations (0–80 μM) for 1 h. Then all-trans-retinal was added to a final concentration of 25 μM for 4 h (in DMF), before rinsing with medium. Cell viability was determined 16–20 h later, in triplicate samples, using the MTT colorimetric assay. Control cells were incubated with DMSO (0.2%) and DMF (0.14%). The data are expressed as the percentage of untreated cells (CTL, without all-trans-retinal).

[4] = tested on: ARPE-19 cells; experiment: Lipid peroxidation status with C11-Bodipy581/591 probe (FACS) under oxidative conditions; assay type: cell-based; details: ARPE-19, 50 µM for 24 h
Experimental: ARPE-19 cells were plated into 2 cm^2 wells (2 × 10^5 cells/well) and cultured for 24 h to reach confluence before PUFA or lipophenol treatment. The cell cultures were treated with 1% FBSM containing tested compounds (deuterated DHAs or deuterated lipophenols) at 50 μM for 24 h and then rinsed with media before the incubation of 5 µM C11-Bodipy^581/591 for 30 min. Then, the cells were rinsed and treated with the different stressors, corresponding to different protocols. For chemical stress the cells were incubated with 400 µM of H2O2 during 24 h followed by FACS analysis. For photobleaching stress, the cells were exposed to a white LED lamp with an intensity of 5000 lux at room temperature during 1 h followed by the FACS analysis.
FACS was performed with the BD Accuri C6 Flow Cytometer and BD Accuri C6 Software for data acquisition (BD Biosciences). This flow cytometer is equipped with an excitation laser at 488 nm, and a fluorescence detector FL1 533/30 nm. Data were collected to 10,000 events for each sample using a flow rate of 35 µL/min. Parameters obtained for data analysis included: cell size from the forward scatter (FSC), granularity from the side scatter (SSC) and the green fluorescence of the stained cells with C11-Bodipy^581/591.
First the SSC-A versus FSC-A dot-plot was used to gate the cellular population and remove the cellular debris. Then the SSC-A versus SSC-H dot-plot was used to remove cell doublets in the previous gate to give a final gate. The cellular population in the last gate designed was plotted on count versus log green fluorescence to give the fluorescence mean intensity of FL1. The mean FL1 values were normalized to the cells only stained with C11-Bodipy^581/591.

[5] = tested on: ARPE-19 cells; experiment: cells; assay type: cell-based; details: ARPE-19, H2O2 treatment 600 µM in 1% FBSM
Experimental: ARPE-19 cells were obtained from ATCC, and maintained in Dulbecco’s Modified Eagle’s Medium (DMEM)/Ham F12 (GIBCO) containing 10% (v/v) fetal bovine serum (FBS) and 1% (v/v) penicillin/streptomycin under a humidified (95%)/CO2 (5%) atmosphere at 37 °C. For splitting and experiments, cells were dissociated with 0.25% trypsin-EDTA, re-suspended in the culture medium and then plated at 1–3 × 10^5 cells/mL. Cells were cultured and used up to a maximum of 10 passages.
as §1
ARPE-19 cells were plated into 96-well plates (3 × 10^4 cells/well) and cultured for 24 h to reach confluence before DHA treatment. The cells were treated in medium with 1% FBS (1% FBSM), or with H2O2 prepared in medium with FBS (1%, v/v) to a final concentration of 600 μM. Cells were then treated with DHA, D2-DHA and D4-DHA, at different concentrations (0–80 μm) for 24 h. Control cells were incubated with DMSO (0.2%). After 4 h, cell viability was determined in triplicate using the MTT colorimetric assay. Results were expressed in percentage of viable cells normalized with control conditions in the absence of PUFA and H2O2 stress.
Sigmoidal doses-responses linked to the toxicity were obtained using GraphPad prism software, allowing to calculate IC50 values described as the concentration leading to 50% of cell viability.

[6] = serum starvation (1% FBSM) 48 h

[2H]C([2H])(/C=C\CC)/C=C\C([2H])([2H])/C=C\C([2H])([2H])/C=C\C([2H])([2H])/C=C\C([2H])([2H])/C=C\CCC(=O)O [D10-DHA]
fold decrease in the Vmax value ([1]; 15s-LOX, compared with the other DHAs): more than 10 fold
15s-LOX activity for the double hydroxylation product ([1]; monitored at 270 nm): significantly reduced activity
pre-dominant product of 15-sLOX oxidation (LC-MS) [2]: vast excess obtained for 17S-HDHA

[2H]C([2H])(/C=C\C/C=C\C/C=C\C/C=C\C/C=C\CC)/C=C\CCC(=O)Oc1cc(O)cc(OC(C)C)c1 [IP-D2-DHA, phloroglucinol-OiPr-O-(6,6-D2)-DHA]
increase in cell viability against all-trans-retinal [3]: 52%
lipid peroxidation status (C11-BODIPY fluorescence) [4, 6]: slight but significant decrease in lipid peroxidation

OO [H2O2, Hydrogen peroxide, reference compound]
cell mortality [5]: 60–70%

[2H]C([2H])(C=CCC=CCC=CCC=CCC)C=CC([2H])([2H])C=CCCC(=O)Oc1cc(O)cc(OC(C)C)c1 [IP-D4-DHA, phloroglucinol-OiPr-O-(6,6,9,9-D4)-DHA]
increase in cell viability against all-trans-retinal [3]: 47%
lipid peroxidation status (C11-BODIPY fluorescence) ([4]; serum starvation (1% FBSM) 24 h): decreased lipid peroxidation compared to IP-DHA and IP-D2-DHA
lipid peroxidation status (C11-BODIPY fluorescence) [4, 6]: slight but significant decrease in lipid peroxidation
lipid peroxidation status (C11-BODIPY fluorescence) ([4]; then H2O2 400 µM 24 h): decreased the lipid peroxidation status relative to IP-DHA and IP-D2-DHA
lipid peroxidation status (C11-BODIPY fluorescence) ([4]; then photobleaching (white light, 5000 lux, 1 h)): reduction of lipid oxidation

CC/C=C\C/C=C\C/C=C\C/C=C\C/C=C\C/C=C\CCC(=O)Oc1cc(O)cc(OC(C)C)c1 [IP-DHA]
increase in cell viability against all-trans-retinal [3]: 42%

CC/C=C\C/C=C\C/C=C\C/C=C\C/C=C\C/C=C\CCC(=O)O [D10-DHA]
Km ([1]; 15s-LOX, substrate 0.02-0.2 mM, borate buffer pH 9, 20 °C, 270 nm): 3.27 µM
